Row | SMILES | logP
1 | O=C(NC1CC2(CCC2)C1)c1ccccc1 | 3.26
2 | O=C(NCCCF)c1ccccc1 | 1.28
3 | CNC(=O)c1ccccc1 | 1.03
4 | O=C(c1ccccc1)N1CC(CF)C1 | 0.93
5 | O=C(Nc1ccccc1)C1CCC1 | 2.26
6 | O=C(Nc1ccccc1)[C@@H]1CC[C@H]1CF | 2.11
7 | CCC(F)(F)CC(=O)Nc1ccccc1 | 2.26
8 | O=C(c1ccccc1)N1CCCCC1CF (stereo not given) | 2
9 | O=C(N[C@H]1C[C@@H]2C[C@@H]2C1)c1ccccc1 | 2.19
10 | O=C(Nc1ccccc1)[C@@H]1CC[C@H]1C(F)(F)F | 2.88
11 | O=C(NC1CCCC(F)(F)C1)c1ccccc1 (stereo not given) | 2.31
12 | O=C(c1ccccc1)N1CCCC(C(F)(F)F)C1 (stereo not given) | 2.21
13 | O=C(NC1CC2(CC(F)C2)C1)c1ccccc1 (stereo not given) | 2.39
14 | O=C(N[C@@H]1CC[C@H]1C(F)(F)F)c1ccccc1 | 2.54
15 | O=C(NCCF)c1ccccc1 | 1.07
16 | O=C(Nc1ccccc1)C1(CF)CCC1 | 1.88
17 | O=C(Nc1ccccc1)[C@H]1C[C@H]1C(F)(F)F | 2.12
18 | O=C(c1ccccc1)N1CCC(C(F)F)C1 (stereo not given) | 1.4
19 | O=C(Nc1ccccc1)[C@@H]1C[C@@H]2C[C@@H]2C1 | 2.92
20 | O=C(c1ccccc1)N1CC2CC(C1)CS(=O)(=O)C2 | -0.34
21 | O=C(NCC(F)(F)F)c1ccccc1 | 1.76
22 | O=C(c1ccccc1)N1CC[C@@H](F)[C@@H](F)C1 | 1.15
23 | O=C(NC1(CF)CCC1)c1ccccc1 | 2.03
24 | O=C(c1ccccc1)N1CCCC1 | 1.19
25 | O=C(Nc1ccccc1)C1CC2(C1)CC(F)(F)C2 | 2.93

Row | SMILES | logP
26 | O=C(c1ccccc1)N1CCCC(C(F)F)C1 (stereo not given) | 1.73
27 | O=C(N[C@H]1C[C@H](CF)C1)c1ccccc1 | 1.78
28 | O=C(c1ccccc1)N1C[C@@H](F)C[C@H](F)C1 | 1.35
29 | O=C(Nc1ccccc1)[C@H]1C[C@@H](F)C1 | 1.86
30 | O=C(Nc1ccccc1)C1CC12CC2 (stereo not given) | 2.35
31 | CCC(F)(F)CNC(=O)c1ccccc1 | 2.04
32 | O=C(N[C@H]1C[C@H](F)C1)c1ccccc1 | 1.71
33 | O=C(Nc1ccccc1)[C@@H]1CC[C@H]1F | 2.04
34 | O=C(Nc1ccccc1)[C@@H]1C[C@H]1C(F)(F)F | 2.98
35 | O=C(N[C@@H]1CC[C@H]1C(F)F)c1ccccc1 | 1.94
36 | O=C(c1ccccc1)N1CC(F)(F)C1 | 1.34
37 | O=C(Nc1ccccc1)[C@H]1C[C@@H](C(F)(F)F)C1 | 2.72
38 | O=C(Nc1ccccc1)C12CC(C(F)F)(CO1)C2 | 1.93
39 | O=C(NC1CCC1(F)F)c1ccccc1 (stereo not given) | 1.7
40 | CC12CCC(CC1)CN2C(=O)c1ccccc1 | 2.66
41 | O=C(c1ccccc1)N1C[C@@H](F)[C@H](F)C1 | 1.08
42 | O=C(N[C@H]1C[C@@H](C(F)(F)F)C1)c1ccccc1 | 2.62
43 | O=C(Nc1ccccc1)C1CC2(CCC2)C1 | 3.27
44 | O=C(c1ccccc1)N1CC2CS(=O)(=O)CC(C1)C2(F)F | 0.2
45 | O=C(c1ccccc1)N1CCCC1C(F)F (stereo not given) | 1.88
46 | O=C(c1ccccc1)N1CCC1CF (stereo not given) | 1.4
47 | O=C(NC1C(F)(F)C12CC2)c1ccccc1 (stereo not given) | 2.14
48 | O=C(c1ccccc1)N1CCC(C(F)(F)F)C1 (stereo not given) | 1.7
49 | O=C(Nc1ccccc1)C1CCCCC1 | 2.88
50 | O=C(NC1CC1(F)F)c1ccccc1 (stereo not given) | 1.51

Row | SMILES | logP
51 | O=C(Nc1ccccc1)C1CC2(CC(F)C2)C1 (stereo not given) | 2.69
52 | O=C(NC1CCC1)c1ccccc1 | 1.95
53 | O=C(Nc1ccccc1)C1CC12CC2(F)F (stereo not given) | 2.66
54 | O=C(c1ccccc1)N1CCC(CF)CC1 | 1.45
55 | O=C(CCCC(F)F)Nc1ccccc1 | 2.06
56 | CC12CC(CN1C(=O)c1ccccc1)C2 | 1.75
57 | O=C(c1ccccc1)N1CCC(CF)C1 (stereo not given) | 1.4
58 | O=C(NCCCC(F)F)c1ccccc1 | 1.76
59 | O=C(Nc1ccccc1)[C@@H]1CC[C@H]1C(F)F | 2.22
60 | O=C(c1ccccc1)N1CCC1 | 1.13
61 | O=C(c1ccccc1)N1CCC(F)(F)C1 | 1.35
62 | O=C(N[C@@H]1C[C@H]1C(F)(F)F)c1ccccc1 | 1.79
63 | O=C(N[C@@H]1C[C@H]1CF)c1ccccc1 | 1.41
64 | O=C(c1ccccc1)N1CC2COCC(C1)C2(F)F | 1.19
65 | O=C(c1ccccc1)N1CC2CCCC1(C(F)(F)F)C2 (stereo not given) | 2.67
66 | O=C(Nc1ccccc1)C1CCC1(F)F (stereo not given) | 2.03
67 | O=C(Nc1ccccc1)C1CCCCCC1(F)F (stereo not given) | 2.9
68 | O=C(c1ccccc1)N1CCCC(CF)C1 (stereo not given) | 1.52
69 | O=C(Nc1ccccc1)[C@@H]1C[C@H]1CF | 1.12
70 | O=C(Nc1ccccc1)C1CCCC1 | 2.68
71 | O=C(c1ccccc1)N1CCC1C(F)(F)F (stereo not given) | 1.75
72 | O=C(NC1CCCCC1(F)F)c1ccccc1 (stereo not given) | 2.16
73 | O=C(N[C@@H]1CC[C@@H]1F)c1ccccc1 | 1.57
74 | O=C(Nc1ccccc1)[C@H]1C[C@H](F)C1 | 2
75 | O=C(Nc1ccccc1)[C@H]1C[C@H](C(F)(F)F)C1 | 3.02
